Laboratory results taken from BindingDB's records for doi:10.1016/j.chembiol.2017.02.001 (The University of Tokyo, 2017).
Where a SMILES comes first, the peptide text is derived from it.

Tests used:
Settings in all cases: pH 7
Pancreatic alpha-amylase [1] = molecular target: T1, Pancreatic alpha-amylase (Homo sapiens, UniProt P04746); assay: Inhibition Kinetics Assay
T1 sequence (P04746 whole entry): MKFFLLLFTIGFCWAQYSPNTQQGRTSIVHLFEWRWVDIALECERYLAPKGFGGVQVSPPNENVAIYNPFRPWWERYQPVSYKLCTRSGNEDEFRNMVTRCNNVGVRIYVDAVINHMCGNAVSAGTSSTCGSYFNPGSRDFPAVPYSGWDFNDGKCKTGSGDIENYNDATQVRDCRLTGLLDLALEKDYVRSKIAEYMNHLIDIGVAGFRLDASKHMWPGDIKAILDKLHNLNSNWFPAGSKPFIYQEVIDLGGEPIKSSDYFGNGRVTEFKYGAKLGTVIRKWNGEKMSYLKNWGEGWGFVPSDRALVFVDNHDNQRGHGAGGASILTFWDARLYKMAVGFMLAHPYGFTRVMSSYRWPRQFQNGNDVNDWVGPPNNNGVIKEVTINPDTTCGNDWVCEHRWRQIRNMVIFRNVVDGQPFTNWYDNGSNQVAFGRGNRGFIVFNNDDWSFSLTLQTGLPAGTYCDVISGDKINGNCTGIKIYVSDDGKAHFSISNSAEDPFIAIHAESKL
Procedure: The release of 2-chloro-4-nitrophenol resulting from the HPA-catalyzed hydrolysis of 2-chloro-4-nitrophenyl a-maltotrioside (CNPG3) was monitored at 400 nm. Reactions were run at 30 °C in 50 mM NaPi and 100 mM NaCl (pH 7.0). Reactions were monitored over 5 min to measure the initial reaction rate.

Alpha-amylase 1A = molecular target: T2, Alpha-amylase 1A (Homo sapiens, UniProt P0DUB6); assay: Inhibition Assay (piHA-Dm)
T2 sequence (P0DUB6 whole entry): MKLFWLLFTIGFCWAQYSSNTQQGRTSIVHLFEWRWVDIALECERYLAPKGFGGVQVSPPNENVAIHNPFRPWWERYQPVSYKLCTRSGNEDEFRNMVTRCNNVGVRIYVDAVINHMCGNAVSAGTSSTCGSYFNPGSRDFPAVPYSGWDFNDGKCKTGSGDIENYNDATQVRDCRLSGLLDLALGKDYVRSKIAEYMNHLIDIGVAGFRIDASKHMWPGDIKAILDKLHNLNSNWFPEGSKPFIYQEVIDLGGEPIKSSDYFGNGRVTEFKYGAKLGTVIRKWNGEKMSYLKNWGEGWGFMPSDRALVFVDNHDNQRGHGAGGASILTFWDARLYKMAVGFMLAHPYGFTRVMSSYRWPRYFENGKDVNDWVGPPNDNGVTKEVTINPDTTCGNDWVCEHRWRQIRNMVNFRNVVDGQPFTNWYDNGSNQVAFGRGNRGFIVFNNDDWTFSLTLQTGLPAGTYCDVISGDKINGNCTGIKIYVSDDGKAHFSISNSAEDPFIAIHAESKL
Procedure: (§1) After kinetic analysis with HPA, piHA-Dm was tested as an inhibitor of ten additional enzymes. The conditions are listed as follows: Agrobacterium faecalis β-glucosidase (2.5 × 10^-4 mg/mL enzyme, 50 mM sodium phosphate pH 7, 4 mM PNP β-gal); Bos taurus β-galactosidase (6.9 × 10^-2 mg/mL enzyme, 50 mM sodium phosphate pH 7, 1 mM PNP β-gal); S. cerevisiae α-glucosidase (5 × 10^-3 mg/mL enzyme, 50 mM sodium phosphate pH 7, 1 mM α-glc); Human maltase-glucoamylase (8.1 × 10^-2 mg/mL enzyme, 50 mM sodium phosphate pH 7, 1 mM α-glc); Mouse maltase-glucoamylase (8.1 × 10^-2 mg/mL enzyme, 50 mM sodium phosphate pH 7, 1 mM α-glc); Butyrivibrio fibrisolvens α-amylase (1.7 × 10^-4 mg/mL enzyme, 50 mM sodium phosphate 100 mM NaCl pH 7, 1 mM CNPG3); Aspergillus oryzae α-amylase (1.9 × 10^-4 mg/mL enzyme, 50 mM sodium phosphate 100 mM NaCl pH 7, 1 mM CNPG3); Porcine pancreatic α-amylase (6.7 × 10^-3 mg/mL enzyme, 50 mM sodium phosphate 100 mM N

Pancreatic alpha-amylase [2] = molecular target: T3, Pancreatic alpha-amylase (Sus scrofa, UniProt P00690); assay: Inhibition Assay (piHA-Dm)
T3 sequence (P00690 whole entry): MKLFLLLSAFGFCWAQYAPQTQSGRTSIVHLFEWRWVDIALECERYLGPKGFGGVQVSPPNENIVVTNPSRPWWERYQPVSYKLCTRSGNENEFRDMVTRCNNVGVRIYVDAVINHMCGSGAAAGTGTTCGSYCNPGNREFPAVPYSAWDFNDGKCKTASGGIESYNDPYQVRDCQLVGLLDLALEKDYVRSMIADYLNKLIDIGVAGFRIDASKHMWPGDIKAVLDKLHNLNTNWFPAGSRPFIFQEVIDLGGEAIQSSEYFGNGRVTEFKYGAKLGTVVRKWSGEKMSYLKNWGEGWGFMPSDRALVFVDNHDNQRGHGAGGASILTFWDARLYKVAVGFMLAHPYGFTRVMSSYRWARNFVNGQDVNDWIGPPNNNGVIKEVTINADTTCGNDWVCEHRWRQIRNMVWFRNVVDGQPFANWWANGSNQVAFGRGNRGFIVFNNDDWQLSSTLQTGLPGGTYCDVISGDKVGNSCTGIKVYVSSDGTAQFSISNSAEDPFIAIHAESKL
Procedure: as §1

Maltase-glucoamylase = Maltase-glucoamylase (Homo sapiens, UniProt O43451); assay: Inhibition Assay (piHA-Dm)
Maltase-glucoamylase, sequence (O43451 whole entry): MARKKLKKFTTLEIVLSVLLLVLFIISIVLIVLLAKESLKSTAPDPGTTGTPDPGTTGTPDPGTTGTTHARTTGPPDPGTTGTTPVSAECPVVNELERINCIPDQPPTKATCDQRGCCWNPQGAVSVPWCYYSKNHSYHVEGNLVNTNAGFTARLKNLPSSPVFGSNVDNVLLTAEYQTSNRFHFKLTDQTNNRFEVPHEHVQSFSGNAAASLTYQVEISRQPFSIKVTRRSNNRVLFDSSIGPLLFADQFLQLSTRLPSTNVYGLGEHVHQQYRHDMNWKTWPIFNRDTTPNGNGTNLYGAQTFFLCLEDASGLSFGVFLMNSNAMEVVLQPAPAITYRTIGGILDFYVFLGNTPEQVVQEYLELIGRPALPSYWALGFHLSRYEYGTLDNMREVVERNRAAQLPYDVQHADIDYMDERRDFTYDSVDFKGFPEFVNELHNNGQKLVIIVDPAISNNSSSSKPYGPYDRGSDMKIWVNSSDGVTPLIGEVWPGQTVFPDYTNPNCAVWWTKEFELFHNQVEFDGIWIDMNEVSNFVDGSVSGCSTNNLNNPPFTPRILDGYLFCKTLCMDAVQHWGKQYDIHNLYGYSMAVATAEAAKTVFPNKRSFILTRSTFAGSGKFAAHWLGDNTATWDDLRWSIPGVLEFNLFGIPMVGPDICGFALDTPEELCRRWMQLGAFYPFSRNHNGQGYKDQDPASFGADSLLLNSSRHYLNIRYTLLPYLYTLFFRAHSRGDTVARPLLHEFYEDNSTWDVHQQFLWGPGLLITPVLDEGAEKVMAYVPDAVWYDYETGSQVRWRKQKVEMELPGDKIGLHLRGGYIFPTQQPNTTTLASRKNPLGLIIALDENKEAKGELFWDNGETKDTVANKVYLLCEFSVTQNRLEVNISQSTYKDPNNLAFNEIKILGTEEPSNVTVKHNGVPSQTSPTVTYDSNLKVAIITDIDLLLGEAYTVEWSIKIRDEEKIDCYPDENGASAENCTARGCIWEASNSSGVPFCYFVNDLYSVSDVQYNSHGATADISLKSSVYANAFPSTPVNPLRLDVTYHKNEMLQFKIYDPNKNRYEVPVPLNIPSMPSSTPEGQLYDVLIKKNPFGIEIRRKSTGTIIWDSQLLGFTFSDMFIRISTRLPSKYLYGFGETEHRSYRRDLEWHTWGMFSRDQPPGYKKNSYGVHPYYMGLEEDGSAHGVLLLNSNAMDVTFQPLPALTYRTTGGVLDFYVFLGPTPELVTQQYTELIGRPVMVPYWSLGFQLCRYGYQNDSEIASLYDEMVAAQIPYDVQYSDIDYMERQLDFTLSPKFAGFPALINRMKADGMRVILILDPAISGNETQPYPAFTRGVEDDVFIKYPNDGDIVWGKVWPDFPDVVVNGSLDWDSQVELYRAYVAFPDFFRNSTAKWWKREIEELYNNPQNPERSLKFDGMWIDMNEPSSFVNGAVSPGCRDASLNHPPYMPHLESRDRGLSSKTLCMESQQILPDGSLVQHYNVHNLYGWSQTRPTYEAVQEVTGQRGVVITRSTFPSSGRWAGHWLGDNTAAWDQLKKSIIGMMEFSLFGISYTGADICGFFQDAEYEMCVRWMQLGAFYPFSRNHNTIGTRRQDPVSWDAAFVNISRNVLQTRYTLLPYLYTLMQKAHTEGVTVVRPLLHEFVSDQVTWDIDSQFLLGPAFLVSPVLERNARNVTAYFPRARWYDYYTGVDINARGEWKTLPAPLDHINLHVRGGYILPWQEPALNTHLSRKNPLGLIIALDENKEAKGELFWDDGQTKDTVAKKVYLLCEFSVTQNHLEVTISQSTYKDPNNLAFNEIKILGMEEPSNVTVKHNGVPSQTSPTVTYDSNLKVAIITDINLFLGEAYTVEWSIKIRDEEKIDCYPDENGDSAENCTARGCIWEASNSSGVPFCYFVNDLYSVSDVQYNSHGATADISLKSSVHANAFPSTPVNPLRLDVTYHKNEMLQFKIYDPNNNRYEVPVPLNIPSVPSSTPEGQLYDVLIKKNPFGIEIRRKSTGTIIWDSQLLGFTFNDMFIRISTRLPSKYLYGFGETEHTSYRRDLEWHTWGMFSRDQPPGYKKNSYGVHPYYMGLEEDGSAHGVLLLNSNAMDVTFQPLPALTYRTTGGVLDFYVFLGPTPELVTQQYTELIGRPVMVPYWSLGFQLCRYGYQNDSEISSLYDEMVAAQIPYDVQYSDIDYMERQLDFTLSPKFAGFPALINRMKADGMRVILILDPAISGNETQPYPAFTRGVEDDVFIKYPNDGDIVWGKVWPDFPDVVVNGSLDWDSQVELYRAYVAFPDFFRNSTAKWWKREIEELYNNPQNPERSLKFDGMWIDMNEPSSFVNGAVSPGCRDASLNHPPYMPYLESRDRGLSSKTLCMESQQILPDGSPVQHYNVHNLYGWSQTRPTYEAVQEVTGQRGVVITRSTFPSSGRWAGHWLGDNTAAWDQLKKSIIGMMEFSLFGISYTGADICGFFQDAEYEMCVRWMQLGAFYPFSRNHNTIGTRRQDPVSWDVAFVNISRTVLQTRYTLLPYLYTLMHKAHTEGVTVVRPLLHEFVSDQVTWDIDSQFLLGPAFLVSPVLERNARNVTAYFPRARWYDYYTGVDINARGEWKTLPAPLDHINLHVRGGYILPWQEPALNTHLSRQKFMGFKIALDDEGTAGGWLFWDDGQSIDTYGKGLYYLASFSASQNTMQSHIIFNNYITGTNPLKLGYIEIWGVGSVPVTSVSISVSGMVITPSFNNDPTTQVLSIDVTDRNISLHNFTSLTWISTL
Procedure: as §1

[3] = molecular target: Soluble maltase-glucoamylase (Mus musculus, UniProt Q6XK23); assay: Inhibition Assay (piHA-Dm)
Soluble maltase-glucoamylase, sequence (Q6XK23 whole entry): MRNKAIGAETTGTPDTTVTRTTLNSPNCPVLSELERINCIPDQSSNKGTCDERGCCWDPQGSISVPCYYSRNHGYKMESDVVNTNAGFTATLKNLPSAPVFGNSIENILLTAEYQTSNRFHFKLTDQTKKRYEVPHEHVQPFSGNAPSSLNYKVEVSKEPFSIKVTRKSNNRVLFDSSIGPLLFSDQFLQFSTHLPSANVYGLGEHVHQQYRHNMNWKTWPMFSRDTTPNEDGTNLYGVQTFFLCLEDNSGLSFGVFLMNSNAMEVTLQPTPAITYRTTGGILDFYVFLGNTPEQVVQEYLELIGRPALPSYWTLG
Procedure: as §1

Row | Ki (Pancreatic alpha-amylase [1]) | IC50 (Alpha-amylase 1A) | IC50 (Pancreatic alpha-amylase [2]) | IC50 (Maltase-glucoamylase) | IC50 [3] | Structure (SMILES)
1 | 7 nM | 34 nM |  |  |  | CC(C)[C@H](NC(=O)[C@H](Cc1c[nH]c2ccccc12)NC(=O)[C@H](CS)N1SCC(=O)N[C@@H](Cc2ccc(O)cc2)C(=O)N2CCC[C@H]2C(=O)N[C@@H](Cc2ccc(O)cc2)C(=O)N[C@@H](CO)C1=O)C(=O)N[C@@H](CCCNC(=N)N)C(=O)N[C@@H](Cc1cnc[nH]1)C(N)=O [piHA-Dm]
2 | 2.7 nM |  |  |  |  | CC(C)[C@H](NC(=O)[C@H](Cc1c[nH]c2ccccc12)NC(=O)[C@H](CS)N1SCC(=O)N[C@@H](Cc2ccc(O)cc2)C(=O)N2CCC[C@H]2C(=O)N[C@@H](Cc2ccc(O)cc2)C(=O)N[C@@H](CO)C1=O)C(=O)N[C@@H](CCCNC(=N)N)C(=O)N[C@@H](Cc1cnc[nH]1)C(=O)N[C@@H](CO)C(=O)N[C@@H](CC(=O)O)C(=O)N1CCC[C@H]1C(=O)N[C@@H](Cc1cnc[nH]1)C(=O)N[C@@H](CCCCN)C(=O)N[C@@H](Cc1ccccc1)C(N)=O [piHA-D3]
3 | 1 nM |  |  |  |  | CC[C@H](C)[C@H](NC(=O)[C@H](CCCNC(=N)N)NC(=O)[C@@H](NC(=O)[C@H](Cc1cnc[nH]1)NC(=O)[C@H](CCCNC(=N)N)NC(=O)[C@H](C)NC(=O)[C@H](Cc1c[nH]c2ccccc12)NC(=O)[C@H](CS)N1SCC(=O)N[C@@H](Cc2ccc(O)cc2)C(=O)N2CCC[C@H]2C(=O)N[C@@H](Cc2ccc(O)cc2)C(=O)N[C@@H](CO)C1=O)C(C)C)C(=O)N[C@@H](CCCNC(=N)N)C(=O)N[C@H](CCC(=O)O)C(=O)N[C@@H](CC(N)=O)C(N)=O [piHA-D1]
4 |  |  | 8.5 nM | 520 nM | 990 nM | CC(C)[C@H](NC(=O)[C@H](Cc1c[nH]c2ccccc12)NC(=O)[C@@H]1CSCC(=O)N[C@@H](Cc2ccc(O)cc2)C(=O)N2CCC[C@H]2C(=O)N[C@@H](Cc2ccc(O)cc2)C(=O)N[C@@H](CO)C(=O)N1)C(=O)N[C@@H](CCCNC(=N)N)C(=O)N[C@@H](Cc1cnc[nH]1)C(N)=O [piHA-Dm] (HELM PEPTIDE1{[O=C(C[*:3])[*:2]].Y.P.Y.S.C.W.V.R.H.[am]}$PEPTIDE1,PEPTIDE1,1:R3-6:R3$$$V2.0)
